Assay results: paper PMC9256669, “Monomethyl auristatin antibody and peptide drug conjugates for trimodal cancer chemo-radio-immunotherapy” (Nature Communications, 2022)
“And” between values parts separate entries of the source, which are not always exact repeats. Equal values may be shown once.

Legend:
[1] = test system: B16 tumors; parameters: species or system RAG1 KO mice; conditions: mouse, in vivo
Protocol: FSC-A FSC-H SCC-H Live Dead-Blue
Representative flow cytometry plots to gate immune cells quantitated in Fig. 4a, b, 4d &
Supplementary Fig. 10b, c. b) Quantification of tumor immune cell identified by flow cytometry on
Tumors harvested on day 19 and immune cells characterized by flow cytometry. c) Tumor
granzyme B expression. Characterized CD8+ T-cells were further gated for granzyme-B staining
(Clone:GB11). In addition, RNA levelsof tumor granzyme-B was analyzed by qPCR. For
Mice implanted with tumor
Log-rank (Mantel-Cox) test.
Source data are provided in Source Data file. […]

[2] = test system: MOC2 tumors; assay: Orthotopic tumor CyTOF analysis of immune infiltrate; type: in vivo, C57BL/6 mice; parameters: Immune cell quantification: M2 / CyTOF cell quantification, Immune cell quantification: CD4+ / CyTOF cell quantification, Immune cell quantification: M1 / CyTOF cell quantification, Immune cell quantification: M-MDSC / CyTOF cell quantification, Immune cell quantification: PMN-MDSC / CyTOF cell quantification, Immune cell quantification: Eosinophils / CyTOF cell quantification, Immune cell quantification: B cells: unit not given here
Protocol: 6-week-old C57BL/6 female mice were implanted with 50,000 MOC2 cells into the tongue. […] […] Tissues were incubated for 15 min at 37 °C and mechanically digested using the gentle MACs Octo Dissociator. Digested samples were then passed through a 100-µm strainer to acquire a single-cell. For viability staining, cells were washed in PBS and stained with Cell-ID Cisplatin (DVS Sciences) to a final concentration of 5 μM for 5 min at room temperature. Cisplatin was quenched when cells were washed and stained with the antibody cocktail. Antibodies were prepared in Maxpar cell staining buffer (PBS with 2 mM EDTA, 0.1% BSA, 0.05% NaN3) and incubated with cells for 15 min at room temperature. […] Antibodies (clone in parenthesis) used for CyTOF included B220 (RA3-6B2), CD117(2B8), CD11c (N418), CD25 (3C7), CD4 (RM4-5), CD45 (30-F11), CD8a (53-6.7), MHC-II (M5/114.15.2), NKP46 (29A1.4), TCRb (H57-597) from Fluidigm. Antibodies CD103 (2E7), CD115 (AFS98), CD11b (M1/70), CD19 (6D5), CD23 (B3B4), CD3 (145-2C11), CD64 (X54-5/7.1), F4/80 (BM8), FCeRI (Mar-1), FR4 (TH6), Ly6C (HK1.4), Ly6G (1A8), NK1.1 (PK136) from BioLegend and antibody Siglec-F (1RNM44N) from ebioscience. All antibodies were validated by the supplier and used at a 1:100 dilution. Cells were washed with staining buffer and pelleted. Before acquiring, cells were resuspended in 0.1× dilution of EQ Four Element Calibration beads (Fluidigm) and filtered through a 35 μm nylon mesh filter. Cells were acquired on a Helios CyTOF Mass Cytometer (Fluidigm) at an event rate of 200 events/s or less. Data was normalized using Matlab-based normalization software based on the EQ bead-removal. Prior to analysis, samples were subsampled to the lowest number of events and all counts were normalized to the same number of total events, 2324. To detect clusters of cells with a similar expression of surface markers in CyTOF, single cells were gated and clustered using unsupervised dimensionality reduction algorithm optimal t-Distributed Stochastic Neighbor Embedding (opt-SNE) algorithm in OMIQ data analysis software (www.omiq.ai) (530 iterations, Perplexity 30, and Theta 0.5)[51].
Supplementary Figure 8: CyTOF analysis of tumor immune infiltrates. a)
populations identified with opt-SNE. b) MOC2 murine tumors orthotopically implanted
Tumors harvested on day 11, analyzed by CyTOF,
provided in Source Data file.

[3] = test system: CAL27 resistant (PIK3CA H1047R) tumors; assay: Orthotopic tongue tumor xenograft therapy; type: in vivo, human cells in NOD SCID mice; conditions: PIK3CA H1047R-expressing CAL27 orthotopic tongue tumors
Source text: (§1) Orthotopic tongue xenograft tumors were established in 6-week-old NOD SCID mice by injecting 150,000 CAL27 parental (WT) or PIK3CA H1047R-expressing cells. […] On the last day of tumor xenograft measurements, mice were euthanized, tongues resected, imaged, and fixed. […] IR was delivered as 2 parallel opposed fields. […]
(§2) Tumor cells Ab/ADC Ab/ADC CDX3379-MMAE
(§3) Supplementary Figure 7: CDX3379-MMAE ADC efficacy in tumor xenografts.
(§4) CAL27 parental (WT) or HER3 resistant (PIK3CA H1047R) tumor xenografts established in murine tongues on day 0. a) On day 7, mice i.v. injected with 2.5 nmoles […]
(§5) On the last day of tumor measurement
(§6) (day 16 for WT, day 14 for PIK3CA H1047R tumors), tongues resected, fixed and sectioned. Tissues stained for Ki-67 (Abcam, ab16667) by IHC and counterstained with hematoxylin. Data is representative of 6 independent tumors per tumor cell line and treatment. b) Mice with orthotopic tongue CAL27 PIK3CA H1047R tumors were […]
(§7) MMAE ADC on day 6 and day 8 (n= 6 tumors/group). On the last day of tumor measurements, tongues were resected, fixed, longitudinally sectioned and H&E stained.
(§8) Source data are provided in Source Data file.
(§9) (also on this page, place not known: CAL27-WT CAL27-Resistant UntreatedCDX3379CDX3379 -MMAE 07142128 volume (mm3) Tumor tipTongue a)On i.v.injected)

[4] = test system: CAL27 parental (WT) tumors; assay: Orthotopic tongue tumor xenograft therapy; type: in vivo, human cells in NOD SCID mice; conditions: single 2.5 nmole injection
Source text: as §1, §2, §3, §4, §5, §6, §7, §8, §9

cyclo(RGD)fc-MC-HN-peg8-e9-oPLGC(Me)AG-r9-c-(MC-VC-PABC-MMAE)-CONH2 [ACPP-MMAE]
tumor control in RAG1 KO mice [1]: did not appreciably increase tumor control in RAG1 KO mice compared to IR alone

CDX3379-MMAE: anti-HER3 antibody CDX3379 with 4 MMAE per antibody via MC-VC-PABC linker, labeled with Cy5
Immune cell quantification: CD8+ ([2]; MOC2 tumors, 2.5 nmoles drug on day 7, CyTOF on day 11, counts normalized to 2324 total events (percent of counts as in Supp. Fig. 8b), one value per tumor, untreated 0.26, 1.08, 0.73, 0.77): 0.86 and 0.95 | Immune cell quantification: T regs ([2]; MOC2 tumors, 2.5 nmoles drug on day 7, CyTOF on day 11, one value per tumor, untreated 0.52, 0.82, 0.90, 0.65): 1.64 and 1.12 and 1.68 | CyTOF cell quantification, Immune cell quantification: B cells ([2]; Tumor #1): 1.59 | CyTOF cell quantification, Immune cell quantification: CD4+ ([2]; Tumor #1): 3.49 | CyTOF cell quantification, Immune cell quantification: Eosinophils ([2]; Tumor #1): 19.75 | CyTOF cell quantification, Immune cell quantification: M1 ([2]; Tumor #1): 1.46 | CyTOF cell quantification, Immune cell quantification: M-MDSC ([2]; Tumor #1): 5.98 | CyTOF cell quantification, Immune cell quantification: PMN-MDSC ([2]; Tumor #1): 55.25 | CyTOF cell quantification, Immune cell quantification: B cells ([2]; Tumor #2): 0.69 | CyTOF cell quantification, Immune cell quantification: CD4+ ([2]; Tumor #2): 3.53 | CyTOF cell quantification, Immune cell quantification: Eosinophils ([2]; Tumor #2): 13.68 | CyTOF cell quantification, Immune cell quantification: M1 ([2]; Tumor #2): 0.69 | CyTOF cell quantification, Immune cell quantification: M-MDSC ([2]; Tumor #2): 5.25 | CyTOF cell quantification, Immune cell quantification: PMN-MDSC ([2]; Tumor #2): 63.34 | CyTOF cell quantification, Immune cell quantification: B cells ([2]; Tumor #3): 1.94 | CyTOF cell quantification, Immune cell quantification: CD4+ ([2]; Tumor #3): 1.98 | CyTOF cell quantification, Immune cell quantification: Eosinophils ([2]; Tumor #3): 11.88 | CyTOF cell quantification, Immune cell quantification: M1 ([2]; Tumor #3): 0.43 | CyTOF cell quantification, Immune cell quantification: M-MDSC ([2]; Tumor #3): 4.09 | CyTOF cell quantification, Immune cell quantification: PMN-MDSC ([2]; Tumor #3): 66.35 | CyTOF cell quantification, Immune cell quantification: B cells ([2]; Tumor #4): 2.11 | CyTOF cell quantification, Immune cell quantification: CD4+ ([2]; Tumor #4): 4.39 | CyTOF cell quantification, Immune cell quantification: Eosinophils ([2]; Tumor #4): 27.02 | CyTOF cell quantification, Immune cell quantification: M1 ([2]; Tumor #4): 0.47 | CyTOF cell quantification, Immune cell quantification: M-MDSC ([2]; Tumor #4): 2.54 | CyTOF cell quantification, Immune cell quantification: PMN-MDSC ([2]; Tumor #4): 51.89 | Immune cell quantification: M2 ([2]; mouse, in vivo): 1.20 and 2.19 and 1.25 and 1.42 | tumor immune populations changed (CyTOF) ([2]; orthotopic MOC2 tumors, single 2.5 nmole i.v. injection): regulatory T cells, dendritic cells and NK cells that were upregulated | tumor growth [3]: significant growth delay | tumor growth (tumor volume, Ki-67) [4]: further enhanced
